The values that follow are results of earlier work, collected in patent US11807855B2, “Selection vectors and methods of selecting eukaryotic host cells” (Novartis AG, priority 2013, dated 2023).

For data set [1], the target named is wild type folate receptor alpha (Homo sapiens, UniProt P15328).
The target of data set [2] is A49L mutated folate receptor alpha (Homo sapiens, UniProt P15328, A74L). Conditions: A49L mutant.
In data set [3] the target is FR alpha and FR beta.
Data set [4] deals with T1, RFC (Homo sapiens, UniProt P41440).
T1 sequence (P41440 1-591): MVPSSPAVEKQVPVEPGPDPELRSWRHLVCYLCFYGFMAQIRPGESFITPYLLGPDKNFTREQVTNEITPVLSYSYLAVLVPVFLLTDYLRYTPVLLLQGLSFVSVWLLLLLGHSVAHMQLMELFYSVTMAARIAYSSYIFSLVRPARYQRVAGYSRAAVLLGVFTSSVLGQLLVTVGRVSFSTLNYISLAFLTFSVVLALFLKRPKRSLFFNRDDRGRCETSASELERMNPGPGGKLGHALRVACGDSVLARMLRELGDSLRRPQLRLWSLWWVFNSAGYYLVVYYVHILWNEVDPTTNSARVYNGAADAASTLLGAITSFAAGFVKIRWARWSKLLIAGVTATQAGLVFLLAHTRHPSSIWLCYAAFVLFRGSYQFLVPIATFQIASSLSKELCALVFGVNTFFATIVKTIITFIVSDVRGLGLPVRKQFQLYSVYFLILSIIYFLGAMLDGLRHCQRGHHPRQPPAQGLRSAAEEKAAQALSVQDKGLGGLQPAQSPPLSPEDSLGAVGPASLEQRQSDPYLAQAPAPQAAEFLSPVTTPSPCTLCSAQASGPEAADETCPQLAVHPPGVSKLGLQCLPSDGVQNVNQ

Chain of A49L mutated folate receptor alpha (P15328 25-234 A74L): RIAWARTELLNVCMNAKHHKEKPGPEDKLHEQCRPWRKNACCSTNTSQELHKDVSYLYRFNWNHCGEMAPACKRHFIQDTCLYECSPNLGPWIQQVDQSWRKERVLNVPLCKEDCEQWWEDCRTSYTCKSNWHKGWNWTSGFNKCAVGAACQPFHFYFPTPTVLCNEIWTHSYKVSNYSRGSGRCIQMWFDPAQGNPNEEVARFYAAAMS
Chain of wild type folate receptor alpha (P15328 25-234): as the sequence (P15328 25-234 A74L) above, with L50A counted along it

A word on the IC50: it is the midpoint of a concentration-inhibition curve. Regarding `CN1c2c(nc(N)[nH]c2=O)NCC1CNc1ccc(C(=O)N[C@@H](CCC(=O)O)C(=O)O)cc1` (single isomer, unassigned) [6S diastereoisomer of 5-methyltetrahydrofolate, 5-methyltetrahydrofolate], the concentration for half-maximal inhibition (IC50) in data set [1] was 2.9 nM; in data set [2], 179 nM.
In general, Ki refers to the equilibrium dissociation constant of an inhibitor or competing ligand from its target. On to `Nc1nc2c(c(=O)[nH]1)CC(CCc1ccc(C(=O)N[C@@H](CCC(=O)O)C(=O)O)cc1)CN2` (stereo partly shown) [5,10-dideazatetrahydrofolic acid], for which, in data set [3] (using [3H]folic acid as a substrate), the inhibitory constant (Ki) is 0.4 to 1.3 nM.
For orientation: Kd means the equilibrium constant for the complex coming apart. Turning to `C#CCN(c1ccc(C(=O)N[C@@H](CCC(=O)N[C@H](CCC(=O)O)C(=O)O)C(=O)O)cc1)[C@H]1CCc2cc3nc(CO)[nH]c(=O)c3cc21` [BGC945], the Kd in data set [3] is 1 nM.
For `CN(Cc1cnc2nc(N)nc(N)c2n1)c1ccc(C(=O)N[C@@H](CCC(=O)O)C(=O)O)cc1` [MTX, methotrexate], the dissociation constant (Kd) in data set [3] was over 100 nM.
The Km is the concentration of substrate that gives half-maximal velocity. In the case of `Nc1nc2ncc(CNc3ccc(C(=O)N[C@@H](CCC(=O)O)C(=O)O)cc3)nc2c(=O)[nH]1` [folic acid], the Michaelis constant (Km) in data set [4] was 200 to 400 µM. Moreover, the Kd in data set [3] is 0.1 to 1 nM.
